Measured values taken from ChEMBL document CHEMBL5728881, “Substituted 6-azabenzimidazole compounds” (2021).

Target: Mitogen-activated protein kinase kinase kinase kinase 1 (Homo sapiens, UniProt Q92918)
Test: TBHPK1 IC50 Assay: Ten nanoliters of test compounds dissolved in DMSO at various concentrations were dispensed into a 384-well ProxiPlate (PerkinElmer #6008289). Five microliters of a solution of recombinant HPK1 diluted in HPK1 kinase assay buffer (50 mM BES [N,N-Bis(2-hydroxyethyl)-2-aminoethanesulfonic acid], pH 7.0; 10 mM magnesium chloride; 0.01% Triton X-100; 1 mM dithiothreitol; 0.01% bovine serum albumin; 0.1 mM sodium orthovanadate) was added to the compound-containing plate and was incubated for 15 minutes at 25° C. Five microliters of a mixture of ATP (Sigma-Aldrich #A6559) and peptide substrate STK S1 (Cisbio #61ST1BLC) diluted in HPK1 kinase assay buffer was then added to start the reaction. Final concentrations were 0.15 nM for HPK1, 10 μM for ATP, and 1 μM for the STK S1 peptide substrate. The reaction mixture was incubated at 25° C. for 3 hours and was stopped with the addition of 10 μl of an EDTA (Ethylenediaminetetraacetic acid)-containing detection buffer (Cisbio #62SDBRDF) supplemented with Europium cryptate-labeled anti-phospho-serine/threonine antibodies (Cisbio #62ST1PEJ) and XL665-labeled streptavidin (Cisbio #610SAXLG). The mixture was incubated for 16 hours at room temperature and peptide phosphorylation was measured by time-resolved fluorescence energy transfer (665 nm/620 nm) on an Envision plate reader (PerkinElmer).

Sequence of Mitogen-activated protein kinase kinase kinase kinase 1 (Q92918 whole entry): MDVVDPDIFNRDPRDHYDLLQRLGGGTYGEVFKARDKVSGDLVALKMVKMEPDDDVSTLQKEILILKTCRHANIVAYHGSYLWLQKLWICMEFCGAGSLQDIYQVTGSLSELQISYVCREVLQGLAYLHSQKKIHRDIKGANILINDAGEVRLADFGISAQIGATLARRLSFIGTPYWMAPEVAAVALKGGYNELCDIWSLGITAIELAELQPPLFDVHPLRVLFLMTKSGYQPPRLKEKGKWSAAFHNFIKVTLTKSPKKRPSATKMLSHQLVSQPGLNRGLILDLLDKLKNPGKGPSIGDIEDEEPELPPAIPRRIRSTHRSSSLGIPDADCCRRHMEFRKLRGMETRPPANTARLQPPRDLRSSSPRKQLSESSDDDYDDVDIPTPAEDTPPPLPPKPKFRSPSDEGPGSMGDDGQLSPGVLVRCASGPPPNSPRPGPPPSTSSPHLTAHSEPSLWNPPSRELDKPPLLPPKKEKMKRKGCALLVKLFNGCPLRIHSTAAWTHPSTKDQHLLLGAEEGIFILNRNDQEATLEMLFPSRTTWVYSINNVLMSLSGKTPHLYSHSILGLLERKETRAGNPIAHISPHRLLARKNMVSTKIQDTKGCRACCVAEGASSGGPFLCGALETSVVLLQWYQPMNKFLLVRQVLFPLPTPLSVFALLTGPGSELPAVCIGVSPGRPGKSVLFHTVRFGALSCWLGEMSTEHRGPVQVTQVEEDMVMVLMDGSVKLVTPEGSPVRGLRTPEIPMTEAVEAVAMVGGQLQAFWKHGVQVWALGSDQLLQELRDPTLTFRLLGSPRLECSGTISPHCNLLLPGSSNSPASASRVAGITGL

Row | SMILES | IC50
1 | CNC(=O)c1cc(Nc2nc(-c3ccc4c(c3)N([C@H]3C[C@@H](N5CC[C@H](C(F)F)C5)C3)C(=O)C4(C)C)cc3ncn(C(C)C)c23)ccc1C | 200 pM
2 | CC(C)n1cnc2cc(-c3cnc4c(c3)N([C@H]3C[C@](C)(N5CCC6CC6C5)C3)C(=O)C4(C)C)nc(Nc3cc(C(=O)NC4(CF)CC4)c(Cl)c(F)c3F)c21 (some centres not stated) | 90 pM
